Measured values from ChEMBL document CHEMBL4732263 (Bioorg Med Chem, 2021).
Values after ≈ are worked out from the molar mass of the structure shown.

What was measured:
[1] = AUC(0 to infinity) in Balb/C mouse plasma at 2.6 mg/kg, iv up to 24 hrs by LC-MS analysis; assay type: ADME, organism-based; parameters: route intravenous, dose 2.6 mg/kg, time <=24
[2] = Drug excretion in Sprague-Dawley rat urine at 3.9 mg/kg, iv up to 24 hrs by LC-MS analysis; assay type: ADME, organism-based; conditions: read-out: Drug excretion
[3] = physchem; conditions: HCl, pH 2, pH 2
[4] = biological target: Sodium channel protein type 5 subunit alpha (Homo sapiens, UniProt Q14524)
Sodium channel protein type 5 subunit alpha, sequence (Q14524 whole entry): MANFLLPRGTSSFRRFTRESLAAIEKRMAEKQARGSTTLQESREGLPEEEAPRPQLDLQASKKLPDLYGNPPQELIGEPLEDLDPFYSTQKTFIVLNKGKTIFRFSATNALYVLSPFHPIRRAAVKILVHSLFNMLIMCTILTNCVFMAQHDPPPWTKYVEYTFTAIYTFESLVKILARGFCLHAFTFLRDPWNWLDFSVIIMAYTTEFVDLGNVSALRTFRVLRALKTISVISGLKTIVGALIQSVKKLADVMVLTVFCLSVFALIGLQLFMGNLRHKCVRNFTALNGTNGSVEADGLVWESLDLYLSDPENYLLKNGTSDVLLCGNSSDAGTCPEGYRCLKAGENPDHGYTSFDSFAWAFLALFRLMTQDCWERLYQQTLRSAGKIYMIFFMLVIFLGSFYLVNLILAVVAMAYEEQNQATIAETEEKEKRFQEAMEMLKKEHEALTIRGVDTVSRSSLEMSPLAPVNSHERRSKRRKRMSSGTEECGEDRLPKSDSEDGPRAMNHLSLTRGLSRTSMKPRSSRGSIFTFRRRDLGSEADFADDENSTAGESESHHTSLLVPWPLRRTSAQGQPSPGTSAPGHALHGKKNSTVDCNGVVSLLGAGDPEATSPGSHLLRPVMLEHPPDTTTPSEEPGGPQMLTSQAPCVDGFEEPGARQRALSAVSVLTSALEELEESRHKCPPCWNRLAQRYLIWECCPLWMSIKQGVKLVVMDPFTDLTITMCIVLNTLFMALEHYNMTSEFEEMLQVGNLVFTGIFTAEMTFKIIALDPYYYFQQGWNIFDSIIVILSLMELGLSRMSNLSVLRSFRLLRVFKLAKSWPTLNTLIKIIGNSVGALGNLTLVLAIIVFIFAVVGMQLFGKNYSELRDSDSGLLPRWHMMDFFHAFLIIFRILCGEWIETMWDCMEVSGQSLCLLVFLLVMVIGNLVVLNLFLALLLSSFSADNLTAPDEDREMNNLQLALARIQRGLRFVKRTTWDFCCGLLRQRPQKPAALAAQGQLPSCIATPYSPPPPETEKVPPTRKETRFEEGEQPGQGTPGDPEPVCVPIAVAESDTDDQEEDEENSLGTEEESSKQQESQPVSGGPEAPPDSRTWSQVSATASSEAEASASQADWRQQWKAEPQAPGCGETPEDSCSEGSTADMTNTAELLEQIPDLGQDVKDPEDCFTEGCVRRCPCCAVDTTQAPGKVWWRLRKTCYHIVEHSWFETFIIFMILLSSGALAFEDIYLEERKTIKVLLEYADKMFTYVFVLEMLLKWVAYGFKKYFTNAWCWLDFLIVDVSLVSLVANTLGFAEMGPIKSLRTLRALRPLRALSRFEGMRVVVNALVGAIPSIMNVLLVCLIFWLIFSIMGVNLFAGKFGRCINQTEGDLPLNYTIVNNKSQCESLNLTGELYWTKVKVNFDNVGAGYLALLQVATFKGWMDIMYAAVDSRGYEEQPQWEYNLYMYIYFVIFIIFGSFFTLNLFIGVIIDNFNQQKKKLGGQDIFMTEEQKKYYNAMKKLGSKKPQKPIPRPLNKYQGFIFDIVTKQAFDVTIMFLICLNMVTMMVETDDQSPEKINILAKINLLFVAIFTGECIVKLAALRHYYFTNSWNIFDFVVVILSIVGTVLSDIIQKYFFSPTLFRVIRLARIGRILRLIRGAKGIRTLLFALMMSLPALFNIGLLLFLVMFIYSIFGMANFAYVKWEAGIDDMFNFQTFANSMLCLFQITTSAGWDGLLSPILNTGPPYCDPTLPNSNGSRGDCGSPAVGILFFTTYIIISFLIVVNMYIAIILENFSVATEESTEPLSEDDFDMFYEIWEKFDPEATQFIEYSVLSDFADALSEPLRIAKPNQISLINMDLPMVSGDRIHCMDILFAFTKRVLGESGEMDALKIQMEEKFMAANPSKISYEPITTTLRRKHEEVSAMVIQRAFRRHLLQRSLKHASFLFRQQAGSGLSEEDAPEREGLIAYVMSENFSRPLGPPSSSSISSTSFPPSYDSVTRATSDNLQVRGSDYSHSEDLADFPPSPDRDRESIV

[5] = octanol/water, pH 7.4
[6] = Volume of distribution at steady state in Balb/C mouse blood at 2.6 mg/kg, iv up to 24 hrs by LC-MS analysis; assay type: ADME, organism-based; conditions: whole blood, read-out: Vdss
[7] = physchem; conditions: PBS, pH 6.5, pH 6.5
[8] = in vitro; conditions: human, Caco-2
[9] = mouse, blood, 2 h; at 1 µg/mL
[10] = Half life in Sprague-Dawley rat at 3.9 mg/kg, iv up to 24 hrs by LC-MS analysis; assay type: ADME, organism-based; conditions: in vivo
[11] = in vitro; conditions: Balb/C, mouse, plasma; at 1 µg/mL
[12] = Clearance in Sprague-Dawley rat renal blood at 3.9 mg/kg, iv up to 24 hrs by LC-MS analysis; assay type: ADME, organism-based; conditions: whole blood
[13] = biological target: Voltage-gated inwardly rectifying potassium channel KCNH2 (Homo sapiens, UniProt Q12809)
Voltage-gated inwardly rectifying potassium channel KCNH2, sequence (Q12809 whole entry): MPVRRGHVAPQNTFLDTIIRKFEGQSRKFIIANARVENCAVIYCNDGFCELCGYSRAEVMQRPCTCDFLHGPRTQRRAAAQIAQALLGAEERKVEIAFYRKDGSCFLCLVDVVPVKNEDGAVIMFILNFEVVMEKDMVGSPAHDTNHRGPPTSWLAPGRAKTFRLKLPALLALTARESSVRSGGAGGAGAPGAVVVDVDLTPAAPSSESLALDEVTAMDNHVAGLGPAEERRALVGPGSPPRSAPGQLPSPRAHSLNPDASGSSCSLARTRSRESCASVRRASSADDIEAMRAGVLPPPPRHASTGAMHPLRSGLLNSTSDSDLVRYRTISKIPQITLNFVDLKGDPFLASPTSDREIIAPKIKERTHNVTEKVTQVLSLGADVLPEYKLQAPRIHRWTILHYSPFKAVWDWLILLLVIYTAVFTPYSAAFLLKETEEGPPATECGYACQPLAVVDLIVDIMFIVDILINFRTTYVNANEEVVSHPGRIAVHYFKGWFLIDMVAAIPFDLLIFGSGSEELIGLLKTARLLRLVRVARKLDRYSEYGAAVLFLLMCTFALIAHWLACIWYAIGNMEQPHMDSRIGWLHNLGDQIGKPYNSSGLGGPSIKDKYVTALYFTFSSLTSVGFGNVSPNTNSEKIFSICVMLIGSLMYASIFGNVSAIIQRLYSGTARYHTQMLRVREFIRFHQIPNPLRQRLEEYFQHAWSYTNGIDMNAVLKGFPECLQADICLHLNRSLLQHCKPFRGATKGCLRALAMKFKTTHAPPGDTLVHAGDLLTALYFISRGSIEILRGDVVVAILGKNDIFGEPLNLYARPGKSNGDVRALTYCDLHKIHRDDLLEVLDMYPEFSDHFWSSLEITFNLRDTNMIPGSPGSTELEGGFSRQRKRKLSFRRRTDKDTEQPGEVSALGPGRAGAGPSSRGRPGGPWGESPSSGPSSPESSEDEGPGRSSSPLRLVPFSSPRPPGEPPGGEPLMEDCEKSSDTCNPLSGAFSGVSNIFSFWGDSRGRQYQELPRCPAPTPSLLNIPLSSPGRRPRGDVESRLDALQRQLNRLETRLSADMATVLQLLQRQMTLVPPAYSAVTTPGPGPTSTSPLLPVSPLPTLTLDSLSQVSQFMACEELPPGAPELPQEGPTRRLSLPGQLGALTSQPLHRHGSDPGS

[14] = in vitro; conditions: human, liver microsomes
[15] = Ratio of drug level in blood to plasma in Balb/C mouse plasma at 2.6 mg/kg, iv up to 24 hrs by LC-MS analysis; assay type: ADME, organism-based; conditions: blood and plasma
[16] = Volume of distribution at steady state in Sprague-Dawley rat plasma at 3.9 mg/kg, iv up to 24 hrs by LC-MS analysis; assay type: ADME, organism-based; conditions: read-out: Vdss
[17] = in vivo; conditions: Balb/C, mouse, po, at 1.9 to 3.5 mg/kg
[18] = in vitro; conditions: human, liver microsomes; remark: listed apart in the source
[19] = mouse, microsomes, 1 h, 1 µM
[20] = Clearance in Balb/C mouse blood at 2.6 mg/kg, iv up to 24 hrs by LC-MS analysis; assay type: ADME, organism-based; conditions: whole blood
[21] = human, microsomes, 1 h, 1 µM
[22] = in vitro; conditions: mouse, liver microsomes
[23] = Apparent half life in Balb/C mouse at 2.6 mg/kg, iv up to 24 hrs by LC-MS analysis; assay type: ADME, organism-based; conditions: in vivo, read-out: t1/2(app) (converted)
[24] = Clearance in Sprague-Dawley rat blood at 3.9 mg/kg, iv up to 24 hrs by LC-MS analysis; assay type: ADME, organism-based; conditions: whole blood
[25] = cells; conditions: Homo sapiens, HEK293, 10 min
[26] = Drug metabolism in Sprague-Dawley rat at 3.9 mg/kg, iv by LC-MS analysis; assay type: ADME, organism-based; conditions: in vivo
[27] = in vitro; conditions: Balb/C, mouse, plasma; at 1 µg/mL; remark: listed apart in the source
[28] = in vitro; conditions: human, Caco-2; remark: listed apart in the source
[29] = Plasma clearance in Sprague-Dawley rat at 3.9 mg/kg, iv up to 24 hrs by LC-MS analysis; assay type: ADME, organism-based
[30] = in vitro; conditions: human, Caco-2; remark: listed apart in the source
[31] = Volume of distribution at steady state in Balb/C mouse plasma at 2.6 mg/kg, iv up to 24 hrs by LC-MS analysis; assay type: ADME, organism-based; conditions: read-out: Vdss
[32] = in vitro; conditions: human, Caco-2; remark: listed apart in the source
[33] = Volume of distribution at steady state in Sprague-Dawley rat blood at 3.9 mg/kg, iv up to 24 hrs by LC-MS analysis; assay type: ADME, organism-based; conditions: whole blood, read-out: Vdss
[34] = in vitro; conditions: mouse, liver microsomes; remark: listed apart in the source
[35] = AUC(0 to infinity) in Sprague-Dawley rat plasma at 3.9 mg/kg, iv up to 24 hrs by LC-MS analysis; assay type: ADME, organism-based; parameters: route intravenous, dose 3.9 mg/kg, time <=24
[36] = Ratio of drug level in blood to plasma in Sprague-Dawley rat at 3.9 mg/kg, iv up to 24 hrs by LC-MS analysis by LC-MS analysis; assay type: ADME, organism-based; conditions: whole blood and plasma
[37] = Plasma clearance in Balb/C mouse at 2.6 mg/kg, iv up to 24 hrs by LC-MS analysis; assay type: ADME, organism-based
[38] = in vitro; conditions: human, Caco-2; remark: listed apart in the source
[39] = Clearance in Sprague-Dawley rat blood at 2.5 mg/kg, iv up to 24 hrs by LC-MS analysis; assay type: ADME, organism-based; conditions: whole blood
[40] = Clearance in Balb/C mouse blood at 2.5 mg/kg, iv up to 24 hrs by LC-MS analysis; assay type: ADME, organism-based; conditions: whole blood
[41] = AUC(0 to infinity) in Balb/C mouse plasma at 2.5 mg/kg, iv up to 24 hrs by LC-MS analysis; assay type: ADME, organism-based; parameters: route intravenous, dose 2.5 mg/kg, time <=24
[42] = Drug excretion in Sprague-Dawley rat urine at 2.5 mg/kg, iv up to 24 hrs by LC-MS analysis; assay type: ADME, organism-based; conditions: read-out: Drug excretion
[43] = Plasma clearance in Sprague-Dawley rat at 2.5 mg/kg, iv up to 24 hrs by LC-MS analysis; assay type: ADME, organism-based
[44] = AUC(0 to infinity) in Sprague-Dawley rat plasma at 2.5 mg/kg, iv up to 24 hrs by LC-MS analysis; assay type: ADME, organism-based; parameters: route intravenous, dose 2.5 mg/kg, time <=24
[45] = Ratio of drug level in blood to plasma in Balb/C mouse plasma at 2.5 mg/kg, iv up to 24 hrs by LC-MS analysis; assay type: ADME, organism-based; conditions: whole blood and plasma
[46] = Clearance in Sprague-Dawley rat renal blood at 2.5 mg/kg, iv up to 24 hrs by LC-MS analysis; assay type: ADME, organism-based; conditions: whole blood
[47] = Volume of distribution at steady state in Sprague-Dawley rat plasma at 2.5 mg/kg, iv up to 24 hrs by LC-MS analysis; assay type: ADME, organism-based; conditions: read-out: Vdss
[48] = Plasma clearance in Balb/C mouse at 2.5 mg/kg, iv up to 24 hrs by LC-MS analysis; assay type: ADME, organism-based
[49] = Volume of distribution at steady state in Balb/C mouse plasma at 2.5 mg/kg, iv up to 24 hrs by LC-MS analysis; assay type: ADME, organism-based; conditions: read-out: Vdss
[50] = Half life in Sprague-Dawley rat at 2.5 mg/kg, iv up to 24 hrs by LC-MS analysis; assay type: ADME, organism-based; conditions: in vivo
[51] = Volume of distribution at steady state in Sprague-Dawley rat blood at 2.5 mg/kg, iv up to 24 hrs by LC-MS analysis; assay type: ADME, organism-based; conditions: whole blood, read-out: Vdss
[52] = Volume of distribution at steady state in Balb/C mouse blood at 2.5 mg/kg, iv up to 24 hrs by LC-MS analysis; assay type: ADME, organism-based; conditions: whole blood, read-out: Vdss
[53] = Apparent half life in Balb/C mouse at 2.5 mg/kg, iv up to 24 hrs by LC-MS analysis; assay type: ADME, organism-based; conditions: in vivo, read-out: t1/2(app) (converted)
[54] = Ratio of drug level in blood to plasma in Sprague-Dawley rat at 2.5 mg/kg, iv up to 24 hrs by LC-MS analysis by LC-MS analysis; assay type: ADME, organism-based; conditions: blood and plasma
[55] = Drug metabolism in Sprague-Dawley rat assessed amiloride formation at 2.5 mg/kg, iv after 4.8 mins by LC-MS analysis; assay type: ADME, organism-based; conditions: in vivo, 0.08 h

SMILES	solubility kinetic [3]	IC50 [4]	logD [5]	solubility kinetic [7]	recovery at 2 h, 20 µM [8]	Stabilty [9]	fraction unbound at […], 1 ug/ml [11]	IC50 [13]	microsomal CLint at 1 h, 1 µM [14]	bioavailability at 24 h [17]	half-life at 1 h, 1 µM [18]	CL free [19]	CL free [21]	microsomal CLint at 1 h, 1 µM [22]	IC50 [25]	metabolised at 4 h, 1 ug/ml [27]	Papp A→B at 2 h, 20 µM [28]	efflux ratio at 2 h, 20 µM [30]	Papp B→A at 2 h, 20 µM [32]	half-life at 1 h, 1 µM [34]	other results
N=C(N)NC(=O)c1nc(-c2cc3ccccc3o2)c(N2CCCCCC2)nc1N	12.5 µg/mL (≈ 31.8 µM)	< 3 µM	5.1	1.6 µg/mL (≈ 4.07 µM)	29%	Unstable	0.02	< 3 µM	26 µL/min/mg	< 5%	1.13 h	888 µL/min/mg	888 µL/min/mg	73 µL/min/mg	< 3 µM	< 6%	0.3 ×10⁻⁶ cm/s	40	12 ×10⁻⁶ cm/s	0.4 h	AUC(0-inf) [1]: 1.6 µM·h; dose excreted at 24 h [2]: 0.02%; Vd [6]: 1.7 L/kg; half-life [10]: 7 h; CL renal at 24 h [12]: 0.01 mL/min/kg; blood plasma ratio at 24 h [15]: 1.4; Vd [16]: 12.4 L/kg; clearance [20]: 53 mL/min/kg; half-life [23]: 1.7 h; clearance [24]: 39.5 mL/min/kg; Drug metabolism [26]: Metabolite_Notdetected; clearance [29]: 56.9 mL/min/kg; Vd [31]: 2.3 L/kg; Vd [33]: 8.6 L/kg; AUC(0-inf) [35]: 2.9 µM·h; blood plasma ratio at 24 h [36]: 1.4; clearance [37]: 71 mL/min/kg; recovery at 2 h, 20 µM [38]: 76%
N=C(N)NC(=O)c1nc(Cl)c(N2CCCCCC2)nc1N [N,N-HEXAMETHYLENEAMILORIDE]	> 100 µg/mL	30 µM	3.8	50 µg/mL (≈ 160 µM)	79%	Unstable	0.03	3.3 µM	24 µL/min/mg	4.5%	1.22 h	2243 µL/min/mg	74 µL/min/mg	726 µL/min/mg	8.3 µM	< 6%	15 ×10⁻⁶ cm/s	3.8	56 ×10⁻⁶ cm/s	0.04 h	clearance [39]: 46.2 mL/min/kg; clearance [40]: 59 mL/min/kg; AUC(0-inf) [41]: 1.5 µM·h; dose excreted at 24 h [42]: 0.5%; clearance [43]: 83.5 mL/min/kg; AUC(0-inf) [44]: 1.6 µM·h; blood plasma ratio at 24 h [45]: 1.5; CL renal at 24 h [46]: 0.2 mL/min/kg; Vd [47]: 5.3 L/kg; clearance [48]: 86 mL/min/kg; Vd [49]: 2 L/kg; half-life [50]: 3.2 h; Vd [51]: 2.9 L/kg; Vd [52]: 1.4 L/kg; half-life [53]: 0.62 h; blood plasma ratio at 24 h [54]: 1.8; recovery at 2 h, 20 µM [38]: 100%; Drug metabolism [55]: Metabolite_Detected
